Reference: paper PMC5668658 (Biochemistry and Biophysics Reports, 2015)

Assays:
Type in all cases: cell-based
[1] = target: T1, organic cation transporter 1 (OCT1/SLC22A1) (Homo sapiens, UniProt O15245); assay: inhibition of OCT1-specific [3H]atenolol uptake at […] in MDCKII cells
T1 sequence (O15245 1-554): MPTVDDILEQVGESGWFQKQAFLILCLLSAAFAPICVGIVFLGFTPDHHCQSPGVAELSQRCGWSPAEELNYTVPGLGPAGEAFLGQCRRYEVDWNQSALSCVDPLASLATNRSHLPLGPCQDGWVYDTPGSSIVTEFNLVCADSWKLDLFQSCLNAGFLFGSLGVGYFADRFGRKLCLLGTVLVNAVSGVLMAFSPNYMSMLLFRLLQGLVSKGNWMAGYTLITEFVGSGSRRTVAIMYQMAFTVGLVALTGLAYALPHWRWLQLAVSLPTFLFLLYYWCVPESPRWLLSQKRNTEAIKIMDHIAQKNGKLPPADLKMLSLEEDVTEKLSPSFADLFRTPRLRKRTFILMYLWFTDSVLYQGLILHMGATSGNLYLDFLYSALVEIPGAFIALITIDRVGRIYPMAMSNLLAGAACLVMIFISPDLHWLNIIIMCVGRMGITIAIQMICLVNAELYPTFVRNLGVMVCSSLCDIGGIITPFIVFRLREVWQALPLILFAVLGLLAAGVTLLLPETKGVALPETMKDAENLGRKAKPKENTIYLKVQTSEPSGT

[2] = target: T1, organic cation transporter 1 (OCT1/SLC22A1); assay: inhibition of OCT1-specific [3H]atenolol uptake in MDCKII cells stably expressing OCT1; MPP+ uptake also inhibited
[3] = target: T1, organic cation transporter 1 (OCT1/SLC22A1); assay: inhibition of OCT1-specific [3H]atenolol uptake in MDCKII cells stably expressing OCT1

SMILES | inhibition of OCT1-specific [3H]atenolol uptake at 100 μM in MDCKII cells [1] | also measured
O=c1cc(-c2ccccc2)oc2cc(O)c(O)c(O)c12 [Baicalein] | exhibited the most potent inhibitory activity | 
O=C(CCc1ccc(O)cc1)c1c(O)cc(O)cc1O[C@@H]1O[C@H](CO)[C@@H](O)[C@H](O)[C@H]1O [Phlorizin] | also exhibited inhibitory activities comparable to those of their aglycones | 
O=c1c(O)c(-c2ccc(O)c(O)c2)oc2cc(O)cc(O)c12 [quercetin] |  | Ki [2]: 48 µM
O=C(CCc1ccc(O)cc1)c1c(O)cc(O)cc1O [phloretin] |  | Ki [3]: 38 µM
